Source: patent publication US8754094B2, “Methods for heat shock protein dependent cancer treatment” (The Research Foundation of State University of New York, priority 2007, dated 2014)
“Also recorded” adds a separate entry of the source. Like-named read-outs stand apart in the source and are kept apart here.

Legend:
BiP = test: Levels of ER lumenal chaperone BiP in NCI-H929; format: cell-based, human; conditions: NCI-H929, data not shown
XBP-1 mRNA splicing = test: RT-PCR analysis of XBP-1 mRNA splicing (UPR) in NCI-H929; format: cell-based, human
Description: (§1) Total RNA was prepared from NCI-H929 and HEK293 cells using TRIzol reagent (Invitrogen, Carlsbad, Calif.) following exposure to MAL3-101, MG-132, and 17-AAG alone and in combination at the indicated time points. Tunicamycin was used at varying concentrations.
(§2) Total RNAs were used for the first-strand synthesis with the Superscript reverse transcriptase (Invitrogen, Carlsbad, Calif.). PCR primers (5′-[…]-3′ [Seq. ID No. 1] and 5′-[…]-3′ [Seq. ID No. 2]) encompassing the missing sequences in XPB-1s were used for the PCR amplification with AmpliTaq Gold polymerase (Applied Biosystem, Foster City, Calif.) with a probe set spanning the spliced-out region. PCR products were separated by electrophoresis on a 3% agarose gel (Agarose-1000, Invitrogen) and visualized them by ethidium bromide staining to assess the degree of X-box binding protein-1 unspliced (XBP-1u, ˜280 bp) and spliced (XBP-1s, ˜265 bp) mRNA.
Unspliced (XBP-1u, 285 bp) and spliced (XBP-1s, 259 bp) XBP-1 mRNA levels of treated NCI-H929 were determined by PCR amplification of total RNA that was reverse transcribed by SuperScript Reverse Transcriptase (Invitrogen, Carlsbad, Calif.). PCR primers (5′-[…]-3′ [Seq. ID No. 1] and 5′-[…]-3′ [Seq. ID No. 2]), which flank the 26-nt intron of XBP1 mRNA, were used for PCR amplification with Ex Taq polymerase (Takara Bio, Shiga, Japan).

NCI-H929 = test: cells
Description: For cell survival assays, cells were plated in 96-well culture plates (BD Biosciences, San Jose, Calif.), 100,000 cells/well with 200 μl, of culture media. The effect of the drugs on cell survival was assessed, for example, by measuring 3-(4,5-dimethylthiazol-2-yl)-5-(3-carboxymethoxyphenyl)-2-(4-sulphophenyl)-2H-tetrazolium, inner salt (MTS) (Promega, Madison, Wis.) dye absorbance of viable cells by adding 40 μL of 5 mg/mL MTS to each well for the last 4 hours of drug exposure. Additional wells containing cells only (untreated control) or medium only (background medium control) were used as controls. Absorbance at 490 nm (A490) was measured using a spectrophotometer (Dynatech Laboratories, Chantilly, Va.). Viability was estimated according to the following formula: […]
Briefly, the cellular fraction affected (Fa) was calculated based on an MTS assay after exposing cells to the drugs alone or in combination at a given dose compared to untreated cells, using the formula: Fa=100−% Viable Cells. Fa values were entered into Calcusyn software (Biosoft, Ferguson, Mo. and Cambridge, United Kingdom) to obtain CI values. CI values <1.0 indicated a synergistic effect of the drugs used in combination. For Inhibitory Concentration, or IC, calculations, dose-effect curves for MAL3-101, MG-132, 17-AAG, and their combinations were used to interpolate the median inhibitory concentration that caused 30% (IC30), 50% (IC50), and 70% (IC70) reductions in the % viable cells compared to untreated cells.
Cells (1×10^5) were plated in 96-well microtiter plates (Costar, Cambridge, Mass.) in 100 μL, of growth medium and exposed for indicated periods to various concentrations of compounds or their combinations. Control cells were cultured in DMSO. All studies were performed in triplicate and repeated at least three times independently. Survival was measured by an MTS assay (Promega, Madison, Wis.) as per the manufacturer's directions. The absorbance (A450) ratio of treated to untreated cells, after the subtraction of background absorbance, was multiplied by 100 to obtain percent cell survival. Cell death was measured by trypan blue dye exclusion in identically plated cultures.
DMSO-treated cultures were compared to drug-treated cultures by Student's t tests or by Dunnett's post-hoc test following significant repeated-measures one-way analysis of variance. All tests were two-tailed, and statistical significance was set at P≦0.05. Isobologram analysis was performed to derive combination index (CI) values based upon the Chou-Talalay method using CalcuSyn software (Biosoft, Ferguson, Mo. and Cambridge, United Kingdom) as described in L. Catley, E. Weisberg, T. Kiziltepe, Y. T. Tai, T. Hideshima, P. Neri, P. Tassone, P. Atadja, D. Chauhan, N. C. Munshi, K. C. Anderson, Aggresome induction by proteasome inhibitor Bortezomib and {alpha}-tubulin hyperacetylation by tubulin deacetylase (TDAC) inhibitor LBH589 are synergistic in myeloma cells, Blood (2006), which is incorporated herein by reference.

Hsp70 = Hsp70 modulation
XBP-1 splicing = test: RT-PCR analysis of XBP-1 splicing in HEK293; format: cell-based; conditions: HEK293, 6 hours
Description: as §1, §2

For `C=CCNC1=C2C[C@@H](C)C[C@H](OC)[C@H](O)[C@@H](C)/C=C(\C)[C@H](OC(N)=O)[C@@H](OC)/C=C\C=C(/C)C(=O)NC(=CC1=O)C2=O` [17-AAG, 17-allylamino-17-demethoxygeldanamycin], the “levels of BiP” value (BiP) was “did not change”, the “XBP-1 mRNA splicing at early time points” value (XBP-1 mRNA splicing; NCI-H929, early time points (4 h), concentrations that gave synergistic cytotoxicity) was “no XBP-1 mRNA splicing was observed” and the IC50 (NCI-H929; read-out: IC50 (reduction of % viable cells), single agent, NCI-H929, 40 h exposure, MTS assay, agent alone) was 0.4 µM. It also gave an IC50 (NCI-H929; read-out: IC50 of 17-AAG in combination with 5 μM MAL3-101, NCI-H929, MTS, plus 5 μM MAL3-101) of 0.3 µM and an IC50 (NCI-H929; read-out: IC50 of 17-AAG in combination with 10 μM MAL3-101, NCI-H929, 40 h, MTS, plus 10 μM MAL3-101) of 0.03 µM.
In the case of `CC(C)(C)NC(=O)C(c1ccc(I)cc1)N(CCN1CCOCC1)C(=O)CCCNC(=O)c1ccccc1` (stereo not drawn) [MAL3-51], the “potency as Hsp70 modulator relative to MAL3-101” value (Hsp70) is reported as “less potent Hsp70 antagonist than MAL3-101; also recorded: substantially less potent Hsp70 modulator” and the “response of percent viability” value (NCI-H929; NCI-H929, 10 or 20 μM, 40 h, MTS) is reported as “no response”.
In the case of tunicamycin [reference compound], the “XBP-1 mRNA splicing, positive control” value (XBP-1 mRNA splicing; NCI-H929, 5 μg/ml, 4 h) is reported as “induced XBP-1 mRNA splicing” and the “XBP-1 splicing in HEK293” value (XBP-1 splicing) is reported as “Stronger XBP-1 splicing was observed”.
